Our source for the inhibition values is patent US10940139B2, “Compounds that interact with the Ras superfamily for the treatment of cancers, inflammatory diseases, rasopathies, and fibrotic disease” (Shy Therapeutics LLC, priority 2017, dated 2021).

The target of one test is Rho-A (Homo sapiens (Human), UniProt P61586). Description: Rho inhibition assay (labeled GTP). To be noted: read-out: Rho-A % Inh. The test is classed as binding.
The target in the next test is Rac-1 (Homo sapiens (Human), UniProt P63000). Description: Rac inhibition assay (labeled GTP). The test is classed as binding. The note with it: read-out: Rac-1 % Inh.
Test [1] concerns the target KRas G12D/Q61H double mutant (Homo sapiens (Human), UniProt P01116, G12D/Q61H). The experiment in a line: Ras GTP binding domain inhibition assay (labeled GTP). To be noted: at 20 μM; read-out: KRas G12D Q61H % Inh. In a few lines: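 His-tagged KRas protein (3-10 μg/ml) was captured overnight at 4° C on nickel-coated wells in 50 mM Tris pH 7.5, 1 mM MgCl2, 1 mM DTT. Bound labeled GTP was read by fluorescence after washing.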

Chain of Rho-A (P61586 whole entry): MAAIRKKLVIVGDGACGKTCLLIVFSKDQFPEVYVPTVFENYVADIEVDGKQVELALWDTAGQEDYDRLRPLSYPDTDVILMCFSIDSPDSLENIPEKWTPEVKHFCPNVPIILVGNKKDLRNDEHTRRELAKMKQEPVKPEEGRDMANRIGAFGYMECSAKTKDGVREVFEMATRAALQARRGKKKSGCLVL
Chain of KRas G12D/Q61H double mutant (P01116-2 other isoform, or with tags, fused parts or gaps G12D/Q61H): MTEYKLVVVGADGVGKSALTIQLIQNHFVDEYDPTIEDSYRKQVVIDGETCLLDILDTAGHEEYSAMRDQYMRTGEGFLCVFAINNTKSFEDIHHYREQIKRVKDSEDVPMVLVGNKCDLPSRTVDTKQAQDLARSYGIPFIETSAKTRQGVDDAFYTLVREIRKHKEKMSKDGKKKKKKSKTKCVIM

Take `O=C(c1csc2c(O)nc(-c3ccccn3)nc12)N1CCN(Cc2ccc(O)c(Cl)c2)CC1` [drawing 3654]: the figures for the inhibition at 20 µM (at Rho-A; at Rac-1; in test [1]) were 76 to 100%, 76 to 100% and 25 to 50%, respectively.

As for `Cc1ccc(-c2cc3nc(-c4ccccn4)nc(O)c3s2)cc1` [drawing 3873], the figures for the inhibition at 20 µM (at Rho-A; at Rac-1; in test [1]) were 0%, 1 to 25% and 0%, respectively.

On to `O=C(c1csc2c(O)nc(-c3ccccn3)nc12)N1CCNC(Cc2ccccc2)C1` (stereo not drawn) [drawing 3667], for which the results for the inhibition at 20 µM (at Rho-A; at Rac-1; in test [1]) were 76 to 100%, 76 to 100% and 25 to 50%, respectively.

Take `O=C(c1cc2nc(-c3ccccn3)nc(O)c2s1)N1CCOC(c2ccccc2)C1` (stereo not drawn) [drawing 3714]: the inhibition at 20 µM lay in the range of 76 to 100% on Rho-A, 76 to 100% on Rac-1 and 51 to 75% in test [1].

For the compound `COc1ccccc1C1CN(C(=O)c2csc3c(O)nc(-c4ccccn4)nc23)CCN1` (stereo not drawn) [drawing 3661], the values for the inhibition at 20 µM (on Rho-A; at Rac-1; in test [1]) were 76 to 100%, 1 to 25% and 25 to 50%, respectively.

Consider `Oc1nc(-c2ccccn2)nc2c(-c3ccnn3-c3ccccn3)csc12` [drawing 3776], for which the results for the inhibition at 20 µM (at Rho-A; at Rac-1; in test [1]) were 25 to 50%, 25 to 50% and 1 to 25%, respectively.

Consider `COCCCCN(C)C(=O)c1csc2nc(-c3ccccn3)nc(N3CCOCC3)c12` [drawing 3679], for which the inhibition at 20 µM at Rho-A lay in the range of 51 to 75%; on Rac-1, 76 to 100%; in test [1], 1 to 25%.

With `Cn1cnc(-c2nc(O)c3c(-c4ccccc4)c(-c4ccc(CNC(=O)OC(C)(C)C)cc4)sc3n2)c1` [drawing 3855], the inhibition at 20 µM on Rho-A was 25 to 50%; at Rac-1 it was 25 to 50%; in test [1], 1 to 25%.

In the case of `O=C(NCCc1cncs1)c1csc2nc(-c3ccccn3)nc(N3CCOCC3)c12` [drawing 3638], the inhibition at 20 µM on Rho-A was 25 to 50%; on Rac-1, 51 to 75%; in test [1], 1 to 25%.

Take `Nc1nc(O)c2sc(-c3cccc(C(=O)NCc4cccc(O)n4)c3)cc2n1` [drawing 3864]: the inhibition at 20 µM is 0% on Rho-A, 1 to 25% on Rac-1 and 0% in test [1].

`COc1ccc(C2CN(C(=O)c3csc4c(O)nc(-c5ccccn5)nc34)CCN2)cc1` (stereo not drawn) [drawing 3663]: the results for the inhibition at 20 µM (on Rho-A; on Rac-1; in test [1]) were 76 to 100%, 76 to 100% and 1 to 25%, respectively.

Take `Nc1nc(O)c2sc(-c3cccc(C(=O)N4CCC(O)C4)c3)cc2n1` (stereo not drawn) [drawing 3861]: the inhibition at 20 µM (at Rho-A; at Rac-1; in test [1]) was 1 to 25% throughout.

Turning to `Cc1sc2nc(-c3ccccn3)nc(N)c2c1Br` [drawing 3803], the inhibition at 20 µM is 51 to 75% at Rho-A, 25 to 50% on Rac-1 and 25 to 50% in test [1].

On to `COc1cnc(CN)[nH]c1=O` [drawing 3690], for which the inhibition at 20 µM (on Rho-A; at Rac-1; in test [1]) was 25 to 50% each time.

With `O=C(NCCc1ccc(O)c(O)c1)c1csc2nc(-c3ccccn3)nc(N3CCOCC3)c12` [drawing 3674], the results for the inhibition at 20 µM (at Rho-A; on Rac-1; in test [1]) were 25 to 50%, 25 to 50% and 0%, respectively.

Consider `Oc1nc(-c2ccccn2)nc2c(-c3ccc(OC4CCOCC4)cc3)csc12` [drawing 3739], for which the inhibition at 20 µM was 51 to 75% at Rho-A, 51 to 75% on Rac-1 and 25 to 50% in test [1].

As to `N#Cc1ccc(COCC(=O)Nc2ccnc(-c3ccccn3)n2)cc1` [drawing 3685], the inhibition at 20 µM on Rho-A is 51 to 75%; at Rac-1, 76 to 100%; in test [1] it was 0%.

As for `Oc1nc(-c2ccccn2)nc2c(-c3ccccc3OC3CCCCC3)csc12` [drawing 3738], the inhibition at 20 µM (on Rho-A; at Rac-1; in test [1]) was 51 to 75% throughout.

Regarding `Oc1nc(-c2ccccn2)nc2c(-c3cncc(C(F)F)c3)csc12` [drawing 3826], the inhibition at 20 µM at Rho-A is 0%; at Rac-1 it was 1 to 25%; in test [1], 1 to 25%.

As to `Cc1c(Br)sc2c(O)nc(-c3ccccn3)nc12` [drawing 3793], the inhibition at 20 µM at Rho-A was 51 to 75%; at Rac-1, 51 to 75%; in test [1], 25 to 50%.

Regarding `O=C(NCCc1ccncc1)c1csc2nc(-c3ccccn3)nc(N3CCOCC3)c12` [drawing 3668], the inhibition at 20 µM was 51 to 75% at Rho-A, 76 to 100% at Rac-1 and 0% in test [1].

On to `Cc1cnc(-c2ccccn2)nc1NC(=O)C(C)c1ccc(C#N)cc1` (stereo not drawn) [drawing 3686], for which the inhibition at 20 µM lay in the range of 51 to 75% on Rho-A, 76 to 100% at Rac-1 and 1 to 25% in test [1].

As for `O=C(c1csc2c(O)nc(-c3ccccn3)nc12)N1CCNC(Cc2ccc(F)cc2)C1` (stereo not drawn) [drawing 3703], the inhibition at 20 µM on Rho-A is 76 to 100%; on Rac-1, 76 to 100%; in test [1], 51 to 75%.

For `Oc1nc(-c2ccccn2)nc2c(C3CCCCC3)csc12` [drawing 3830], the inhibition at 20 µM fell in the range of 51 to 75% at Rho-A, 25 to 50% at Rac-1 and 25 to 50% in test [1].

Consider `O=C(c1csc2c(O)nc(-c3ccccn3)nc12)N1CCN(Cc2cccc(O)c2)CC1` [drawing 3629], for which the inhibition at 20 µM (at Rho-A; at Rac-1; in test [1]) was 76 to 100% each time.

Regarding `O=C(c1csc2c(O)nc(-c3ccccn3)nc12)N1CCNC(c2ccc(F)cc2)C1` (stereo not drawn) [drawing 3696], the inhibition at 20 µM on Rho-A was 76 to 100%; at Rac-1, 76 to 100%; in test [1], 1 to 25%.

Regarding `Cc1sc2c(N)nc(-c3ccccn3)nc2c1-c1ccccc1` [drawing 3709], the inhibition at 20 µM (at Rho-A; at Rac-1; in test [1]) was 25 to 50% in each case.

With `Oc1nc(-c2ccccn2)nc2c(-c3ccc(C4CCC4)cc3)csc12` [drawing 3737], the inhibition at 20 µM (on Rho-A; on Rac-1; in test [1]) was 51 to 75% throughout.

With `O=C(c1csc2c(O)nc(-c3ccccn3)nc12)N1CCOC(c2cccc(F)c2)C1` (stereo not drawn) [drawing 3630], the inhibition at 20 µM lay in the range of 1 to 25% on Rho-A, 25 to 50% at Rac-1 and 25 to 50% in test [1].

For `CC(C)(C(=O)Nc1ccnc(-c2ccccn2)n1)c1ccc(C#N)cc1` [drawing 3640], the results for the inhibition at 20 µM (at Rho-A; at Rac-1; in test [1]) were 25 to 50%, 51 to 75% and 1 to 25%, respectively.

For `O=C(c1csc2c(O)nc(-c3ccccn3)nc12)N1CCN(Cc2ccccc2)CC1` [drawing 3651], the inhibition at 20 µM on Rho-A was 76 to 100%; on Rac-1 it was 51 to 75%; in test [1], 25 to 50%.

As for `Oc1nc(-c2ccccn2)nc2c(-c3cncnc3)csc12` [drawing 3823], the inhibition at 20 µM (at Rho-A; on Rac-1; in test [1]) was 1 to 25% throughout.

In the case of `CNS(=O)(=O)CCCNC(=O)c1csc2nc(-c3ccccn3)nc(N3CCOCC3)c12` [drawing 3680], the inhibition at 20 µM at Rho-A is 51 to 75%; on Rac-1, 76 to 100%; in test [1], 1 to 25%.
